In the supplement of paper PMC10307832:

Tests used:
Assay in all cases: relative viability (nuclei count vs DMSO), 5 days (fraction); higher = more cells survive
[1] = compound: COc1cc(-c2nn([C@H]3CC[C@H](N4CCN(C(C)=O)CC4)CC3)c3ncnc(N)c23)ccc1NC(=O)c1cc2ccccc2n1C + Cc1nc(Nc2ncc(C(=O)Nc3c(C)cccc3Cl)s2)cc(N2CCN(CCO)CC2)n1 [Dasatinib] (partner 0.075 µM)
Outline: (§1)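 Medians of duplicate plates are given as relative viability. That measure is the nuclei count in treated wells divided by the count in vehicle wells. Counts were taken on 4× images of lung cancer cell lines in 1536-well plates, 5 days after pin-tool dosing the day after seeding with one drug alone or a fixed anchor-drug dose plus five library-drug doses (not always all listed) in √10 steps.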

[2] = compound: COc1cc(-c2nn([C@H]3CC[C@H](N4CCN(C(C)=O)CC4)CC3)c3ncnc(N)c23)ccc1NC(=O)c1cc2ccccc2n1C + CS(=O)(=O)CCNCc1ccc(-c2ccc3ncnc(Nc4ccc(OCc5cccc(F)c5)c(Cl)c4)c3c2)o1 [Lapatinib] (partner 2 µM)
Outline: as §1

Midostaurin + Pemetrexed = compound: CO[C@@H]1[C@H](N(C)C(=O)c2ccccc2)C[C@H]2O[C@]1(C)n1c3ccccc3c3c4c(c5c6ccccc6n2c5c31)C(=O)NC4 [Midostaurin] + Nc1nc2[nH]cc(CCc3ccc(C(=O)N[C@@H](CCC(=O)O)C(=O)O)cc3)c2c(=O)[nH]1 [Pemetrexed] (partner 0.2 µM)
Outline: as §1

Midostaurin + Dasatinib = compound: CO[C@@H]1[C@H](N(C)C(=O)c2ccccc2)C[C@H]2O[C@]1(C)n1c3ccccc3c3c4c(c5c6ccccc6n2c5c31)C(=O)NC4 [Midostaurin] + Cc1nc(Nc2ncc(C(=O)Nc3c(C)cccc3Cl)s2)cc(N2CCN(CCO)CC2)n1 [Dasatinib] (partner 0.075 µM)
Outline: as §1

Midostaurin + Bortezomib = compound: CO[C@@H]1[C@H](N(C)C(=O)c2ccccc2)C[C@H]2O[C@]1(C)n1c3ccccc3c3c4c(c5c6ccccc6n2c5c31)C(=O)NC4 [Midostaurin] + CC(C)C[C@H](NC(=O)[C@H](Cc1ccccc1)NC(=O)c1cnccn1)B(O)O [Bortezomib] (partner 0.002 µM)
Outline: as §1

UMC-11
relative viability ([1]; first compound 0.0128 µM): 0.49 | relative viability ([1]; first compound 0.04048 µM): 0.468 | relative viability ([1]; first compound 0.128 µM): 0.42 | relative viability ([1]; first compound 1.28 µM): 0.446 | relative viability ([2]; first compound 0.0128 µM): 1.04 | relative viability ([2]; first compound 0.04048 µM): 0.978 | relative viability ([2]; first compound 0.128 µM): 0.712 | relative viability ([2]; first compound 1.28 µM): 0.739 | relative viability (Midostaurin + Pemetrexed; first compound 0.01 µM): 0.808 | relative viability (Midostaurin + Pemetrexed; first compound 0.03162 µM): 0.753 | relative viability (Midostaurin + Pemetrexed; first compound 0.1 µM): 0.65 | relative viability (Midostaurin + Pemetrexed; first compound 0.3162 µM): 0.528 | relative viability (Midostaurin + Dasatinib; first compound 0.01 µM): 0.362 | relative viability (Midostaurin + Dasatinib; first compound 0.03162 µM): 0.403 | relative viability (Midostaurin + Dasatinib; first compound 0.1 µM): 0.444 | relative viability (Midostaurin + Dasatinib; first compound 0.3162 µM): 0.344 | relative viability (Midostaurin + Bortezomib; first compound 0.01 µM): 0.734 | relative viability (Midostaurin + Bortezomib; first compound 0.03162 µM): 0.591 | relative viability (Midostaurin + Bortezomib; first compound 0.1 µM): 0.508 | relative viability (Midostaurin + Bortezomib; first compound 0.3162 µM): 0.34
